# Assay results taken from patent publication US20210030025A1, “BLOOD-FREE DIET FOR REARING MALARIA MOSQUITO VECTORS” (UNIVERSIDADE NOVA DE LISBOA-INSTITUTO DE HIGIENE E MEDICINA …, priority 2018, published 2021).
# Test system: vitellogenin (Vg) transcription in the female mosquito fatbody
# Experiment: Vg expression 24 h post-feeding on diets (q-RT-PCR)
# Assay type: in vivo, Anopheles coluzzii
# Conditions: ΔΔCT method
# Description: FIG. 2a. Effects of the fresh-blood-free diets on oogenesis: Expression of vitellogenin precursor. Relative expression was determined using the ΔΔCT method as fold change to mosquitoes fed on the ILD, where RLD-NoP and ILD-NoP represent liquid diet compositions not supplemented with peptides, blood represent conventional blood diets and the remaining RLDs and ILDs represent respectively Rich Liquid Diet and Initial Liquid Diet supplemented with the correspondent indicated peptide P1 to P6.
# Oogenesis was assessed by changes in Vg expression 24 h post-feeding (FIG. 2a). Vg expression levels in the fatbodies was quantified using the ΔΔCT method a) after a blood meal, b) after microinjection with the different peptides, and c) after being fed on the various artificial diets as described in section 4. […]
# Quantitative Real-time Polymerase Chain Reaction (q-RT-PCR) analysis was used to quantify the expression of Vitellogenin-1 precursor (Vg), a protein biomarker of mosquito oogenesis initiation. Vg expression levels in the fatbodies were quantified using the ΔΔCT method a) after a blood meal, b) after microinjection with the different peptides, and c) after being fed on the various artificial diets. […]
# Oogenesis was assessed by changes in Vg expression 24 h post-feeding mosquitoes with the artificial diets of Examples 1 and 2 and conventional vertebrate blood diet (FIG. 2a). […]
substance,measurement,value
"Glucagon-like peptide 2 (HADGSFSDEMNTILDNLAARDFINWLIQTKITD; Glucagon-like peptide 2; UniProt P01275 146-178, looked up) [Diet P2, glucagon-like peptide 2 (1-33) (human), from Bachem]",Vg transcript levels after feeding,significantly increased VTG expression
